This passage reports GI50 and TGI results from PubChem BioAssay (NCI).

Test systems include OVCAR-8 ovarian; SR leukemia; TK-10 renal; HCT-116 colon; OVCAR-5 ovarian; NCI/ADR-RES ovarian; SK-MEL-5 melanoma; K-562 leukemia; SW-620 colon; NCI-H23 lung.
Common to all, as to experiment: inhibition of tumour cell growth, NCI panel, 48 h

Each structure is given as a SMILES string.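 Each compound was tested at five concentrations against cells in 96-well plates for 48 hours. GI50 is the concentration that inhibits growth by half. TGI: total growth inhibition.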

For the compound `COc1ccc2c(c1)[n+](=O)c(C(=O)/C=C/c1cc(OC)c(OC)c(OC)c1)c(C)n2[O-]`, the GI50 in the assay with OVCAR-8 ovarian is 6.03 µM; in the assay with SR leukemia it was 58.4 µM; in the assay on TK-10 renal, 18.9 µM; in the assay on HCT-116 colon, 16.9 µM; in the assay on OVCAR-5 ovarian it was 20.8 µM; in the assay on NCI/ADR-RES ovarian, 32.3 µM. Also, the GI50 in the assay on SK-MEL-5 melanoma was 40.4 µM; with K-562 leukemia, over 100 µM; in the assay on SW-620 colon, over 100 µM. In addition, the TGI is 30.3 µM in the assay on OVCAR-8 ovarian; over 100 µM with SR leukemia; 36 µM with TK-10 renal; 65.5 µM with HCT-116 colon; 62.9 µM with OVCAR-5 ovarian; over 100 µM in the assay on NCI/ADR-RES ovarian. The TGI in the assay on SK-MEL-5 melanoma, in the assay on K-562 leukemia and in the assay on SW-620 colon was over 100 µM in each case.

Regarding `COc1ccc(-c2csc(-c3cc(Cl)cc(Cl)c3Cl)n2)cc1`, the GI50 in the assay on OVCAR-8 ovarian is 48.4 µM; in the assay with SR leukemia, 7.05 µM; in the assay on TK-10 renal it was over 100 µM; with HCT-116 colon it was over 100 µM; in the assay with OVCAR-5 ovarian, over 100 µM; in the assay with NCI/ADR-RES ovarian, 52.2 µM. The GI50 was 32.2 µM with SK-MEL-5 melanoma, 46 µM with K-562 leukemia and 42.4 µM in the assay with SW-620 colon. The TGI was over 100 µM in the assay with OVCAR-8 ovarian; 32.4 µM in the assay with SR leukemia; over 100 µM with TK-10 renal; over 100 µM with HCT-116 colon; over 100 µM with OVCAR-5 ovarian; over 100 µM with NCI/ADR-RES ovarian. Moreover, the TGI with SK-MEL-5 melanoma, with K-562 leukemia and with SW-620 colon was over 100 µM each time.

`O=[N+]([O-])c1ccc(Sc2c3ccccc3nc3ccccc23)nc1`: the TGI in the assay on NCI-H23 lung is 19.8 µM; with OVCAR-8 ovarian it was over 49.3 µM; with SR leukemia, over 21.3 µM; in the assay on TK-10 renal, 6.84 µM; in the assay on HCT-116 colon, 4.22 µM; with OVCAR-5 ovarian, 33.2 µM. Also, the TGI came out at 45.7 µM with NCI/ADR-RES ovarian, 30.7 µM in the assay with SK-MEL-5 melanoma and 4.79 µM with SW-620 colon.

Consider `NC(=O)/C=C/NC(=O)/C=N\O`, for which the TGI in the assay on OVCAR-8 ovarian, in the assay on SR leukemia, in the assay on HCT-116 colon, with OVCAR-5 ovarian, with NCI/ADR-RES ovarian and in the assay on SK-MEL-5 melanoma was over 100 µM throughout. The TGI in the assay with K-562 leukemia and in the assay with SW-620 colon was over 100 µM each time.

As to `O=C(CCCCCCSc1nc(-c2ccc(Cl)cc2)cc(-c2ccc(Cl)cc2)n1)NO`, the GI50 in the assay with NCI-H23 lung is 1.32 µM; with OVCAR-8 ovarian, 1.43 µM; in the assay on TK-10 renal it was 1.61 µM; in the assay with HCT-116 colon it was 1.45 µM; in the assay on OVCAR-5 ovarian it was 1.55 µM; in the assay on NCI/ADR-RES ovarian, 0.998 µM. Moreover, the GI50 in the assay with SK-MEL-5 melanoma was 1.19 µM; in the assay on K-562 leukemia it was 1.65 µM; in the assay on SW-620 colon, 1.71 µM. The TGI in the assay with NCI-H23 lung is 4.33 µM; with OVCAR-8 ovarian it was 8.1 µM; in the assay on TK-10 renal, 11.9 µM; in the assay with HCT-116 colon, 6.05 µM; with OVCAR-5 ovarian it was 5.63 µM; in the assay with NCI/ADR-RES ovarian, 2.97 µM. Besides, the TGI is 2.74 µM in the assay with SK-MEL-5 melanoma, over 50 µM with K-562 leukemia and 24.2 µM in the assay with SW-620 colon.

Consider `CCOC(=O)Nc1ccc(-c2nc(-c3cccc(OC)c3)c(-c3ccnc(Br)c3)[nH]2)cc1`, for which the GI50 in the assay on NCI-H23 lung was 2 µM; in the assay on OVCAR-8 ovarian it was 2.98 µM; in the assay with SR leukemia, 2.88 µM; with TK-10 renal, 3.88 µM; in the assay with OVCAR-5 ovarian, 3.56 µM; in the assay on NCI/ADR-RES ovarian, 2.35 µM. In addition, the GI50 in the assay on SK-MEL-5 melanoma is 1.83 µM; in the assay on K-562 leukemia it was 2.76 µM; in the assay with SW-620 colon, 3.19 µM. Moreover, the TGI was 4.75 µM in the assay with NCI-H23 lung; over 100 µM in the assay on OVCAR-8 ovarian; over 100 µM in the assay with SR leukemia; over 100 µM in the assay with TK-10 renal; over 100 µM with OVCAR-5 ovarian; 7.73 µM with NCI/ADR-RES ovarian. The figures for the TGI in the assay with SK-MEL-5 melanoma, in the assay on K-562 leukemia and in the assay on SW-620 colon were 3.43 µM, over 100 µM and over 100 µM, respectively.

For `C#Cc1cccc(Nc2nc3ccc([N+](=O)[O-])cc3nc2Nc2cccc(C#C)c2)c1`, the GI50 with NCI-H23 lung was 0.265 µM; in the assay with OVCAR-8 ovarian, 0.303 µM; in the assay on SR leukemia it was 0.318 µM; with HCT-116 colon it was 0.214 µM; with OVCAR-5 ovarian, 0.338 µM; in the assay on NCI/ADR-RES ovarian, 0.284 µM. For the same compound, the values for the GI50 in the assay with SK-MEL-5 melanoma, in the assay on K-562 leukemia and with SW-620 colon were 0.181 µM, 0.216 µM and 0.291 µM, respectively. The TGI came out at 0.911 µM in the assay on NCI-H23 lung; 1.46 µM in the assay with OVCAR-8 ovarian; 1.3 µM in the assay with SR leukemia; 0.715 µM in the assay with HCT-116 colon; 1.35 µM in the assay on OVCAR-5 ovarian; 1.1 µM in the assay with NCI/ADR-RES ovarian. Moreover, the TGI in the assay on SK-MEL-5 melanoma turned out to be 0.349 µM; with K-562 leukemia, 0.7 µM; with SW-620 colon it was 1.09 µM.

For `O=C1C(Cl)=C(Nc2cccc(O)c2)C(=O)N1c1ccccc1Cl`, the GI50 in the assay with NCI-H23 lung is 32.2 µM; in the assay with OVCAR-8 ovarian it was 32.1 µM; with SR leukemia it was 7 µM; in the assay on HCT-116 colon, 20 µM; in the assay on OVCAR-5 ovarian, 55.2 µM; in the assay with NCI/ADR-RES ovarian, 56.3 µM. For the same compound, the GI50 in the assay with SK-MEL-5 melanoma is 18.8 µM; in the assay on K-562 leukemia, 25 µM; in the assay on SW-620 colon it was 52.3 µM. The TGI is over 100 µM with NCI-H23 lung; over 100 µM with OVCAR-8 ovarian; 40.2 µM in the assay on SR leukemia; 70.9 µM with HCT-116 colon; over 100 µM in the assay on OVCAR-5 ovarian; over 100 µM with NCI/ADR-RES ovarian. Moreover, the TGI is 65.6 µM with SK-MEL-5 melanoma, 63.2 µM with K-562 leukemia and over 100 µM in the assay with SW-620 colon.
